Results taken from ChEMBL document CHEMBL5029198, “Water-Soluble Nystatin and Derivative” (ACS Med Chem Lett, 2022).
≈ marks a conversion by molar mass, not a printed value. Where a SMILES comes first, the peptide text is derived from it. Bridges are numbered along the chain shown (N, C = ends). [ ]: non-standard residue; d: D form. The star is where a group is joined. X1 = CC[C@H](C)CCCCC(=O)*; Dab = NCC[C@H](N)C(=O)O

Experiments:
[1] = Hemolytic activity in human RBC at 0.25 mg/ml measured after 1 hr; type: ADME, tissue-based; conditions: erythrocyte
Candida albicans = assay: Antifungal activity against Candida albicans ATCC 10231 assessed as reduction in fungal growth incubated overnight by broth dilution method; type: functional
Aspergillus niger = assay: Antifungal activity against Aspergillus niger ATCC 20057 assessed as reduction in fungal growth incubated overnight by broth dilution method; type: functional
[2] = Cytotoxicity against human HEp-2 cells assessed as reduction in cell viability incubated for 40 to 60 mins by resazurin dye based assay; conditions: time 40-60 min
[3] = Hemolytic activity in human RBC at 0.5 mg/ml measured after 1 hr relative to control; type: ADME, tissue-based, Erythrocyte; conditions: red blood cells, read-out: Activity
[4] = Protein binding in human plasma assessed as unbound fraction at 0.05 mg/ml measured after 24 hrs by RP-HPLC analysis (Rvb= 0.014 mg/ml); type: ADME, cell-free
[5] = Protein binding in human plasma assessed as unbound fraction at 0.1 mg/ml measured after 24 hrs by RP-HPLC analysis (Rvb= 0.069 mg/ml); type: ADME, cell-free
[6] = Protein binding in human plasma assessed as unbound fraction at 0.1 mg/ml measured after 48 hrs by RP-HPLC analysis (Rvb= 0.069 mg/ml); type: ADME, cell-free
[7] = Protein binding in human plasma assessed as unbound fraction at 0.25 mg/ml measured after 24 hrs by RP-HPLC analysis (Rvb= 0.147 mg/ml); type: ADME, cell-free
[8] = Protein binding in human plasma assessed as unbound fraction at 0.25 mg/ml measured after 48 hrs by RP-HPLC analysis (Rvb= 0.147 mg/ml); type: ADME, cell-free
[9] = Protein binding in human plasma assessed as unbound fraction at 0.5 mg/ml measured after 24 hrs by RP-HPLC analysis (Rvb= 0.211 mg/ml); type: ADME, cell-free
[10] = Protein binding in human plasma assessed as unbound fraction at 0.5 mg/ml measured after 48 hrs by RP-HPLC analysis (Rvb= 0.211 mg/ml); type: ADME, cell-free
[11] = Protein binding in human plasma assessed as free fraction at 0.1 mg/ml measured after 48 hrs by RP-HPLC analysis relative to control; type: ADME, cell-free
[12] = Protein binding in human plasma assessed as free fraction at 0.25 mg/ml measured after 48 hrs by RP-HPLC analysis relative to control; type: ADME, cell-free
[13] = Protein binding in human plasma assessed as free fraction at 0.5 mg/ml measured after 48 hrs by RP-HPLC analysis relative to control; type: ADME, cell-free
[14] = Protein binding in human plasma at 0.25 mg/ml measured after 24 hrs by RP-HPLC analysis relative to control; type: ADME, cell-free; conditions: read-out: PPB (converted)
[15] = Protein binding in human plasma at 0.5 mg/ml measured after 24 hrs by RP-HPLC analysis relative to control; type: ADME, cell-free; conditions: read-out: PPB (converted)
[16] = Stability of compound in human plasma assessed as retention time at 0.5 mg/ml measured after 6 hrs by HPLC analysis; type: ADME, cell-free
[17] = Stability of compound in human plasma assessed as retention time at 0.5 mg/ml measured after 48 hrs by HPLC analysis; type: ADME, cell-free
[18] = Aqueous solubility of compound at up to 100 mg/ml; type: physicochemical; conditions: buffer

NYSTATIN [listing 1 of 2 here]
Activity [1]: Toxic

CC[C@H](C)CCCCC(=O)N[C@@H](CCN)C(=O)N[C@H](C(=O)N[C@@H](CCN)C(=O)N[C@H]1CCNC(=O)[C@H]([C@@H](C)O)NC(=O)[C@H](CCN)NC(=O)[C@H](CCN)NC(=O)[C@H](CC(C)C)NC(=O)[C@@H](Cc2ccccc2)NC(=O)[C@H](CCN)NC1=O)[C@@H](C)O (X1-[Dab]T[Dab][Dab][Dab][dF]L[Dab][Dab]T; lactam 4-C)
MIC (Candida albicans): > 35 µg/mL | MIC (Aspergillus niger): > 35 µg/mL

CC(=O)O.COC(=O)[C@H]1[C@@H]2C[C@@H](O[C@@H]3O[C@H](C)[C@@H](O)[C@H](N)[C@@H]3O)/C=C/C=C/C=C/C=C/CC/C=C/C=C/[C@H](C)[C@@H](O)[C@@H](C)[C@H](C)OC(=O)C[C@H](O)C[C@H](O)C[C@H](O)CC[C@@H](O)[C@H](O)C[C@](O)(C[C@@H]1O)O2
MIC (Candida albicans): 30 µg/mL | MIC (Aspergillus niger): > 35 µg/mL

Clc1ccc(COC(Cn2ccnc2)c2ccc(Cl)cc2Cl)cc1 (configuration not stated) [ECONAZOLE]
MIC (Candida albicans): > 35 µg/mL | MIC (Aspergillus niger): > 35 µg/mL

CC(=O)O.C[C@@H]1[C@H](O)[C@@H](C)/C=C/C=C/CC/C=C/C=C/C=C/C=C/[C@H](O[C@@H]2O[C@H](C)[C@@H](O)[C@H](N)[C@@H]2O)C[C@@H]2O[C@](O)(C[C@@H](O)[C@H](O)CC[C@@H](O)C[C@@H](O)C[C@@H](O)CC(=O)O[C@H]1C)C[C@H](O)[C@H]2C(=O)NCCO
MIC (Candida albicans): 5 µg/mL | MIC (Aspergillus niger): 23.6 µg/mL | CC50 [2]: 149 µg/mL | Activity [1]: Non-Toxic | hemolysis at 1 h, 0.5 mg/ml [3]: 62% | Cp(f) [4]: 13 µg/mL | Cp(f) [5]: 42 µg/mL | Cp(f) [6]: 30 µg/mL | Cp(f) [7]: 120 µg/mL | Cp(f) [8]: 100 µg/mL | Cp(f) [9]: 168 µg/mL | Cp(f) [10]: 137 µg/mL | fraction unbound at 48 h, 0.1 mg/ml [11]: 0.3 | fraction unbound at 48 h, 0.25 mg/ml [12]: 0.4 | fraction unbound at 48 h, 0.5 mg/ml [13]: 0.274 | fraction unbound at 24 h, 0.25 mg/ml [14]: 0.48 | fraction unbound at 24 h, 0.5 mg/ml [15]: 0.34 | Retention_time [16]: 9.4 min | Retention_time [17]: 6.5 min | solubility [18]: Soluble

C[C@@H]1[C@H](O)[C@@H](C)/C=C/C=C/C=C/C=C/C=C/C=C/C=C/[C@H](O[C@@H]2O[C@H](C)[C@@H](O)[C@H](N)[C@@H]2O)C[C@@H]2O[C@](O)(C[C@@H](O)C[C@@H](O)[C@H](O)CC[C@@H](O)C[C@@H](O)CC(=O)O[C@H]1C)C[C@H](O)[C@H]2C(=O)O [AMPHOTERICIN B]
MIC (Candida albicans): 5 µg/mL (≈ 5.41 µM) | MIC (Aspergillus niger): 31.5 µg/mL (≈ 34.1 µM) | CC50 [2]: 87 µg/mL (≈ 94.1 µM)

NYSTATIN [listing 2 of 2 here]
MIC (Candida albicans): 10 µg/mL | MIC (Aspergillus niger): 22.5 µg/mL
